Experimental data reported in patent US10945978B2, “Treatment and diagnosis of melanoma” (The Rockefeller University, priority 2012, dated 2021).
Where a name gives a salt, the structure may show the parent alone.

How the values were obtained:
[1] = system: human umbilical vein endothelial cells (HUVEC's); assay: Endothelial recruitment assay (HUVEC migration towards melanoma cells); type: cell-based; details: for ability of melanoma cells to recruit endothelial cells: MeWo, HT-144, SK-Mel-2, SK-Mel-334.2, 1 μM for 72 hours
Experimental: 5×10^4 cancer cells were seeded into 24-well plates approximately 24 hours prior to the start of the assay. HUVEC's were grown to 80% confluency and serum starved in EGM-2 media supplemented with 0.2% FBS for 16 hours. HUVEC's were then pulsed with Cell Tracker Red CMTPX dye (C34552, Invitrogen) for 45 minutes. Meanwhile, cancer cells were washed with PBS, 0.5 mL of 0.2% FBS EGM-2 media was added to each well, and a 3.0 μm HTS Fluoroblock insert (351151, BD Falcon, San Jose, Calif.) was placed into each well. 1×10^5 HUVEC's, resuspended in 0.5 mL of starvation media, were seeded into each trans-well insert, and the recruitment assay was allowed to proceed for 16-18 hours at 37° C. For neutralization antibody and/or recombinant protein experiments, antibody/protein was then added to each well at the appropriate concentration as indicated in the figures: 40 μg/mL anti-ApoE 1D7, 40 μg/mL anti-IgG, 100 μM rhApoE3, and 100 μM BSA. Upon completion of the assay, the inserts were processed and analyzed as described for the matrigel invasion assay above (See Matrigel Invasion Assay).
The endothelial recruitment assay was carried out as previously described (Pencheva et al., 2012; Png et al., 2012). Melanoma cells were treated with DMSO, GW3965, T0901317, or Bexarotene at 1 μM for 56 hours, after which 5×10^4 cells were seeded in a 24-well plate in the presence of each drug and allowed to attach for 16 hours prior to starting the assay. HUVEC cells were serum-starved overnight in EGM-2 media containing 0.2% FBS. The following day, 1×10^5 HUVEC cells were seeded into a 3.0 μm HTS Fluoroblock trans-well migration insert (351151, BD Falcon, San Jose, Calif.) fitted into each well containing cancer cells at the bottom. The HUVEC cells were allowed to migrate towards the cancer cells for 20 hours at 37° C., after which the inserts were processed as previously described (Pencheva et al., 2012). For ApoE antibody neutralization experiments, 40 μg/mL 1D7 anti-ApoE blocking antibody (Heart Institute, University of Ottawa, Ottawa, Canada) or 40 μg/mL anti-IgG control antibody (AB-108-C, R&D Systems, Minneapolis, Minn.) was added to each trans-well insert at the start of the assay.
Subsequently, 5×10^4 cancer cells were seeded into 24-well plates in the presence of each drug or DMSO and allowed to attach for 16 hours prior to starting the assay. Human umbilical vein endothelial cells (HUVEC cells) were serum-starved in 0.2% FBS-containing media overnight. The following day, 1×10^5 HUVEC cells were seeded into a 3.0 μm HTS Fluoroblock insert (351151, BD Falcon) fitted into each well containing the cancer cells at the bottom. The HUVEC cells were allowed to migrate towards the cancer cells for 20 hours, after which the inserts were washed in PBS, fixed in 4% PFA, labeled with DAPI, and mounted on slides. The basal side of each insert was imaged using an inverted fluorescence microscope (Zeiss Axiovert 40 CFL) at 5× magnification, and the number of DAPI-positive cells was quantified using ImageJ.

[2] = system: MeWo, MeWo-LM2, HT-144, SK-Mel-2 and SK-Mel-334.2 human melanoma cells; assay: Trans-well matrigel cell invasion assay, melanoma cells; type: cell-based; details: for ability of melanoma cells to invade through matrigel: MeWo, HT-144, SK-Mel-2, SK-Mel-334.2, 1 μM for 72 hours
Experimental: Cancer cells were serum-starved in 0.2% FBS DMEM-based media for 12 hours. Trans-well invasion chambers (354480, BD Biosciences, Bedford, Mass.) were pre-equilibrated prior to beginning the assay by adding 0.5 mL of starvation media to the top and bottom chambers. After 30 minutes, the media in the top chamber was removed, and 0.5 mL of media containing 1×10^5 cancer cells was added into each matrigel-coated trans-well insert and incubated at 37° C. for 24 hours. For neutralization antibody and/or recombinant protein experiments, antibody/recombinant protein was added to each well at the start of the assay at the following concentrations as indicated in the figures: 5-40 μg/mL anti-ApoE 1D7 (Heart Institute, University of Ottawa), 5-40 μg/mL anti-IgG (AB-108-C, R&D Systems, Minneapolis, Minn.), 100 μM recombinant human ApoE3 (4696, BioVision, Mountain View, Calif.), and 100 μM BSA (A2153, Sigma-Aldrich). Upon completion of the assay, matrigel-coated inserts were washed with PBS, the cells at the top side of each insert were scraped off, and the inserts were fixed in 4% paraformaldehyde for 15 minutes. The inserts were then cut out and mounted onto slides using VectaShield mounting medium containing DAPI (H-1000, Vector Laboratories, Burlingame, Calif.). The basal side of each insert was imaged using an inverted fluorescence microscope (Zeiss Axiovert 40 CFL) at 5× magnification, taking three representative images for each insert. The number of invaded cells was quantified using ImageJ (NIH).
The cell invasion assay was performed as previously described in detail (Pencheva et al., 2012) using a trans-well matrigel invasion chamber system (354480, BD Biosciences). In brief, various melanoma cells were cultured in the presence of DMSO, GW3965, T0901317, or Bexarotene at 1 μM for 56 hours, after which melanoma cells were switched to starvation media (0.2% FBS) for 16 hours in the presence of each drug. Following starvation, cells were seeded into matrigel-coated trans-well inserts, and the invasion assay was allowed to proceed for 24 hours at 37° C. For ApoE antibody neutralization experiments, 40 μg/mL 1D7 anti-ApoE blocking antibody (Heart Institute, University of Ottawa, Ottawa, Canada) or 40 t g/mL anti-IgG control antibody (AB-108-C, R&D Systems, Minneapolis, Minn.) was added to each trans-well insert at the start of the assay.
The cells were then serum starved for 16 hours in 0.2% FBS media in the presence of each corresponding drug or DMSO. Following serum starvation, the cells were subjected to the trans-well invasion assay using a matrigel invasion chamber system (354480, BD Biosciences). Invasion chambers were pre-equilibrated prior to the assay by adding 0.5 mL of starvation media to the top and bottom wells. Meanwhile, cancer cells were trypsinized and viable cells were counted using trypan blue. Cancer cells were then resuspended at a concentration of 2×10^5 cells/1 mL starvation media, and 0.5 mL of cell suspension, containing 1×10^5 cells, was seeded into each trans-well. The invasion assay was allowed to proceed for 24 hours at 37° C. […] Following fixation, the inserts were washed in PBS, cut out, and mounted onto slides using VectaShield mounting medium containing DAPI nuclear stain (H-1000, Vector Laboratories). The basal side of each insert was imaged using an inverted fluorescence microscope (Zeiss Axiovert 40 CFL) at 5× magnification, and the number of DAPI-positive cells was quantified using ImageJ.

[3] = metastatic LM2 cells, recombinant ApoE3 100 μM vs BSA
[4] = MeWo cells pre-treated 48 hours

| Molecule | migration of endothelial cells towards highly metastatic cancer cells ([1]; endothelial cells pre-incubated with ApoE3 100 μM for 24 hours, LM2 cells) | endothelial recruitment [1, 3] | invasion [2, 3] | ability of melanoma cells to recruit endothelial cells [1] | ability of melanoma cells to invade through matrigel [2] | endothelial recruitment [1, 4] | tumor cell invasion [2, 4] |
| --- | --- | --- | --- | --- | --- | --- | --- |
| recombinant human ApoE: recombinant human ApoE3 (4696, BioVision) | significantly reduced | significantly suppressed | significantly suppressed | – | – | – | – |
| O=S(=O)(c1ccccc1)N(CC(F)(F)F)c1ccc(C(O)(C(F)(F)F)C(F)(F)F)cc1 [T0901317 1] | – | – | – | consistently suppressed | consistently suppressed | – | – |
| O=C(O)Cc1cccc(OCCCN(Cc2cccc(C(F)(F)F)c2Cl)CC(c2ccccc2)c2ccccc2)c1 [GW3965 2, 3-[3-[N-(2-Chloro-3-trifluoromethylbenzyl)-(2,2-diphenylethyl)amino]propyloxy] phenylacetic acid hydrochloride] | – | – | – | consistently suppressed | consistently suppressed | decreased | decreased |
